≈ marks a conversion by molar mass, not a printed value. Like-named read-outs stand apart in the source and are kept apart here.

For one data set, the system named is L1210 Leukämiezellen. As to the kind of experiment: Colony formation of L1210 leukemia cells in soft agar (cytotoxicity in vitro). The conditions noted are these: for IC50: Mus musculus. The format is cell-based, Maus. An excerpt: Die zytostatische Wirksamkeit der erfindungsgemäßen Verbindungen wurde anhand von L1210 Leukämiezellen der Maus getestet. Hierzu wurde die Koloniebildung von L1210 Leukämiezellen in Agarplatten herangezogen. Diese Methode dient zum Nachweis des Einflusses der Testsubstanzen auf das Wachstumsverhalten der Zellen über 1 Stunde oder über mehrere Generationen. Bei einer Zellzykluszeit von 10-12 Stunden werden dabei in der Testzeit von 7 Tagen etwa 14 aufeinanderfolgende Generationen beobachtet. Die erfindungsgemäßen zytostatisch wirksamen Substanzen bewirken in diesem Test eine Reduktion der zu beobachtenden Koloniezahl gegenüber einer unbehandelten Kontrollprobe.
Verfahrensweise zur Ermittlung der Koloniebildung von L1210 Leukämiezellen in Soft-Agar
500 Leukämiezellen pro Platte wurden mit unterschiedlichen Konzentrationen der Testsubstanz 1 Stunde bei 37°C inkubiert. Anschließend wurden die Zellen zweimal mit McCoy5A-Medium gewaschen und schließlich in Petrischalen nach Zugabe von 0,3 % Agar ausgegossen. Kontrollen wurden lediglich mit frischem Medium inkubiert. Anstelle der einstündigen Inkubation wurden in manchen Fällen unterschiedliche Konzentrationen der Testsubstanzen der oberen Agarschicht zugemischt, um so eine kontinuierliche Exposition der Zellen über die gesamte Inkubationszeit zu erreichen. Nach Erstarren des Agars wurden die Platten im Brutschrank 7 Tage bei 37°C inkubiert (5 Vol. -% CO₂, 95 % relative Luftfeuchtigkeit). Anschließend wurde die Zahl der entstandenen Kolonien mit einem Durchmesser von mehr als 60 µm gezählt. Die Ergebnisse wurden angegeben als Koloniezahl in behandelten Agarplatten in Prozent der unbehandelten Kontrolle. Aus der so erhaltenen Dosiswirkungskurve wurde die IC₅₀ als Maß für die Wirksamkeit der Substanz ermittelt. Die Ergebnisse für die hier beschriebenen Verbindungen im Vergleich zu Adriamycin sind in der nachfolgenden Tabelle 1 zusammengefaßt.
Die Struktur der hergestellten Verbindungen wurde mittels ¹H-NMR- Spektroskopie, UV-Spektroskopie und HPLC-Technik ermittelt. Der Verlauf der Reaktionen wurde, soweit möglich, dünnschichtchromatographisch auf Kieselgel-Fertigplatten verfolgt. Die Ergebnisse der Zytotoxizitäts-Testung gegen L1210-Zellen in vitro sind in Tabelle 1 zusammengefaßt. Tabelle 1

Data set [1] can be described thus: Stability / hydrolysis of the spacer-bearing anthracyclines in phosphate-buffered saline, HPLC analysis. The format is physicochemical. The method, then: Die jeweilige Verbindung wurde bei einer Konzentration von 1 mg/ml in Acetonitril gelöst und mit Phosphat-gepufferter Kochsalzlösung pH 7.2 im Volumenverhältnis 1:100 verdünnt, wobei eine Konzentration von jeweils 10 µg/ml erhalten wurde. Diese Lösungen wurden jeweils bei 37 °C im Dunkeln inkubiert und 20 µl-Aliquote wurden nach definierten Zeiten mittels der HPLC-Technik untersucht. Die Stabilitäten dieser Verbindungen sind in Fig. 1 graphisch dargestellt.
Verbindung 10 wurde, wie vorstehend beschrieben, unrersucht und mittels HPLC-Technik analysiert.
Verbindung 12 wurde analog zu Verbindung 10 hydrolysiert, wobei jedoch ein pH-Wert von 7,4 verwendet wurde.

The mark [2] stands for this setting: 1 h incubation at 37°C, then washed, colonies counted after 7 days.
[3] abbreviates: continuous exposure in agar, 7 days at 37°C, not differentiated by possible hydrolysis products (footnote a).
Where [4] appears, read: 10 µg/ml in phosphate-buffered saline pH 7.2, 37 °C, dark, releases β-Rhodomycin-I directly and via an intermediate.

As to “4˝-O-(4-Maleimidobenzoyl)-cytorhodin-S [Verbindung 12]”, the “IC₅₀-Werte gegenüber L1210-Zellen in vitro, 1h-Inkubation” value in the data set on L1210 Leukämiezellen (setting [2]) is on record as 0,0095 µg/ml. Besides, the “IC₅₀-Werte gegenüber L1210-Zellen in vitro, Dauerinkubation” value in the data set on L1210 Leukämiezellen (setting [3]) is 0,0028 µg/ml. Further, the Hydrolyse result in data set [1] (as for Verbindung 10 but pH 7,4, 37 °C) is “analoges Hydrolyseverhalten”.
Regarding `COc1cccc2c1C(=O)c1c(O)c3c(c(O)c1C2=O)C[C@@](O)(C(=O)CO)C[C@@H]3O[C@H]1C[C@H](N)[C@H](O)[C@H](C)O1` [Adriamycin, reference compound], the IC50 is 0.02 µg/mL (≈ 0.0368 µM) in the data set on L1210 Leukämiezellen (L1210, 168 h, continuous exposure in agar, 7 days at 37°C, not differentiated by possible hydrolysis products (footnote a), read-out: IC₅₀-Werte gegenüber L1210-Zellen in vitro, Dauerinkubation) and 0.04 µg/mL (≈ 0.0736 µM) in the data set with L1210 Leukämiezellen (L1210, 1 h incubation at 37°C, then washed, colonies counted after 7 days, read-out: IC₅₀-Werte gegenüber L1210-Zellen in vitro, 1h-Inkubation).
Take `CC[C@@]1(O)C[C@H](O[C@H]2C[C@H](N(C)C)[C@H](O[C@H]3C[C@@H]4O[C@H]5CC(=O)[C@H](C)O[C@H]5O[C@@H]4[C@H](C)O3)[C@H](C)O2)c2c(O)c3c(c(O)c2[C@H]1O[C@H]1C[C@H](N(C)C)[C@H](O)[C@H](C)O1)C(=O)c1cccc(O)c1C3=O` [Cytorhodin-S, reference compound]: in the data set on L1210 Leukämiezellen (setting [2]), the “IC₅₀-Werte gegenüber L1210-Zellen in vitro, 1h-Inkubation” value is 0,013 µg/ml. Moreover, the “IC₅₀-Werte gegenüber L1210-Zellen in vitro, Dauerinkubation” value with L1210 Leukämiezellen (setting [3]) is given as 0,003 µg/ml.
On to `CC[C@@]1(O)C[C@H](O[C@H]2C[C@H](N(C)C)[C@H](OC(=O)c3ccc(N4C(=O)C=CC4=O)cc3)[C@H](C)O2)c2c(O)c3c(c(O)c2[C@H]1O)C(=O)c1cccc(O)c1C3=O` [Verbindung 8], for which, in the data set on L1210 Leukämiezellen (setting [2]), the “IC₅₀-Werte gegenüber L1210-Zellen in vitro, 1h-Inkubation” value is reported as 0,5 µg/ml. For the same compound, the “IC₅₀-Werte gegenüber L1210-Zellen in vitro, Dauerinkubation” value in the data set with L1210 Leukämiezellen (setting [3]) is on record as 0,11 µg/ml. For the same compound, the Hydrolyse result in data set [1] (setting [4]) is reported as “analoges Hydrolyseverhalten”.
As to `CCC1(O)CC(OC2CC(N(C)C)C(OC(=O)c3ccc(N4C(=O)C=CC4=O)cc3OC(C)=O)C(C)O2)c2c(O)c3c(c(O)c2C1O)C(=O)c1cccc(O)c1C3=O` [Verbindung 10, 7-O-[4′-O-(2-Acetoxy-4-maleimidobenzoyl)-α-L-rhodosaminyl]-β-rhodomycinon], the Hydrolyse result in data set [1] (setting [4]) was “hydrolytisch zersetzt”.
On to `CC[C@@]1(O)C[C@H](O[C@H]2C[C@H](N(C)C)[C@H](OC(=O)CCN3C(=O)C=CC3=O)[C@H](C)O2)c2c(O)c3c(c(O)c2[C@H]1O)C(=O)c1cccc(O)c1C3=O` [Verbindung 11, 7-O-[4′-O-(3-Maleimidopropionyl)-α-L-rhodosaminyl]-βrhodomycinon], for which the “IC₅₀-Werte gegenüber L1210-Zellen in vitro, 1h-Inkubation” value in the data set on L1210 Leukämiezellen (setting [2]) is reported as 0,11 µg/ml. For the same compound, the “IC₅₀-Werte gegenüber L1210-Zellen in vitro, Dauerinkubation” value in the data set with L1210 Leukämiezellen (setting [3]) is listed as 0,028 µg/ml. Moreover, in data set [1] (setting [4]), the Hydrolyse result was “analoges Hydrolyseverhalten”.
In the case of `CC[C@@]1(O)C[C@H](O[C@H]2C[C@H](N(C)C)[C@H](O)[C@H](C)O2)c2c(O)c3c(c(O)c2[C@H]1O)C(=O)c1cccc(O)c1C3=O` [β-Rhodomycin-I, 7-O-(α-L-Rhodosaminyl)-β-rhodomycinon, reference compound], the “IC₅₀-Werte gegenüber L1210-Zellen in vitro, 1h-Inkubation” value with L1210 Leukämiezellen (setting [2]) is recorded as 0,05 µg/ml. The “IC₅₀-Werte gegenüber L1210-Zellen in vitro, Dauerinkubation” value with L1210 Leukämiezellen (setting [3]) is recorded as 0,022 µg/ml.

Values taken from patent publication EP0298385A2, “Cyctostatic anthracyclin derivatives” (BEHRINGWERKE Aktiengesellschaft, priority 1987, dated 1989).
